# Results from the METLIN SMRT retention time set (Domingo-Almenara et al. 2019).
# Assay: gradient 5% acetonitrile 3 min, to 50% in 2 min, to 85% in 15 min, held 3 min, 100 µL/min
# Conditions: column: Zorbax Extend-C18 2.1 x 50 mm; eluents: water / acetonitrile, 0.1% formic acid
# Summary of the method: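 Each retention time is based on an adduct peak selected computationally and verified by manual inspection. Measurements used HPLC–quadrupole time-of-flight mass spectrometry in positive and negative ionization mode on mixtures of ~100 pure standards. Chromatography ran on a Zorbax Extend-C18 column (2.1 × 50 mm, 1.8 μm) at 100 μL/min with water and acetonitrile, each containing 0.1% formic acid, and dead and dwell volumes of 40 μL and 900 μL.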
row,SMILES,RP-LC retention time [s]
1,Cc1ccc(NS(=O)(=O)c2cn(CC(C)C)c3ncccc23)c(C)c1,1050
2,CCN1c2cc(C)ccc2-n2cccc2C12CCN(C(=O)NCCCOC)CC2,931
3,CC(C)CCC(=O)N1CCC2(CC1)CC(O)CCO2 (configuration not stated),644
4,CNc1nnc(-c2nnc(C)o2)c2ccccc12,567
5,CCOc1ccc(-c2cc3c(=O)n(Cc4nc(-c5ccc(OC)c(OC)c5)no4)ncn3n2)cc1,1060
6,COc1ccc(S(=O)(=O)N2CCCN(c3ccc(=O)n(-c4ccccc4)n3)CC2)cc1,822
7,O=C(Cc1cccs1)NC1CCCN(c2cc(-c3ccc(F)cc3)[nH]n2)C1 (configuration not stated),784
8,CCn1ncc(NC(=O)COc2ccc(C)cc2)c(N2CCOCC2)c1=O,764
9,CC(C)N1C(=O)c2cccnc2Sc2cc(C(=O)N3CCCN(C)CC3)ccc21,596
10,O=C(c1cc(-c2ccccn2)n[nH]1)N1CCCC(C(=O)N2CCc3ccccc32)C1 (configuration not stated),713
11,Cc1nc(-c2ccc(N3CCN(C(=O)c4ccco4)CC3)nc2)sc1C,759
12,CCOC(=O)c1c(C)c(CCC(=O)NCCN2CCCCCC2)c(C)n1C,656
13,Cc1cccc(NC(=O)N2CCCC(C)(C(=O)NCc3ccc(F)cc3)C2)c1 (configuration not stated),924
14,Fc1cccc(-c2nc(-c3ccnc(N4CCOCC4)c3)no2)c1,967
15,O=C(c1ccc(S(=O)(=O)c2ccccc2)nc1)N1CCN(C2CCCCC2)CC1,566
16,CCCn1c(C(=O)NN2CCCC2=O)cc2c(=O)n(C)c(=O)n(C)c21,592
17,CC1CC(=O)Nc2cc(S(=O)(=O)N3CCN(c4ccccn4)CC3)ccc2S1 (configuration not stated),646
18,Cc1cc(=O)n(CC(=O)NCc2ccc3c(c2)OCO3)c(N2CCOCC2)n1,622
19,CCCN1CCN(C(=O)C2Cc3cc(S(=O)(=O)N4CCCCC4)ccc3N2C(C)=O)CC1 (configuration not stated),630
20,Cc1cc(Cl)ccc1NC(=O)c1cn(C)c2ncccc12,827

row,SMILES,RP-LC retention time [s]
1,O=C1CC2OCC=C3CN4CC[C@]56c7ccccc7N1C5[C@H]2[C@H]3C[C@H]46 (some centres not stated),583
2,Cn1c(C(=O)N2CCN(c3ccccc3)CC2)cc2c(=O)oc3ccccc3c21,905
3,CC1(C(=O)NCc2ccc(F)cc2)CCCN(C(=O)NC2CCCCC2)C1 (configuration not stated),895
4,O=C(CCC(=O)N1CC2CCCN2c2ccccc21)NCCN1CCCCCC1 (configuration not stated),646
5,CC1(C)CC(=O)c2cn(-c3ccc(Cl)cc3)c(=O)c(C(=O)N3CCOCC3)c2C1,757
6,Cc1cc(C)cc(NC(=O)N2CCC(N3CCN(Cc4ccccc4)C(=O)C3=O)CC2)c1,740
7,CCCC(=O)N1CCC(C(=O)Nc2nnc(C)s2)CC1,590
8,CCNc1nc(N(C)C)nc(-n2cnc(SC)n2)n1,784
9,O=C(c1ccc2c(c1)OCO2)N1CCN(Cc2nc(C3CC3)cs2)CC1,611
10,CCN1C(=O)C2(CCN(S(=O)(=O)c3ccc(C)cc3)CC2)c2ccccc21,1050
11,CC1CCCC(C)N1CCCNC(=O)C1CCCN(c2ncnc3c2nc2n3CCCCC2)C1 (configuration not stated),592
12,CC1(C(=O)NCc2ccc(F)cc2)Cn2cnc(C(=O)NC3CC3)c2C(=O)N1C1CC1 (configuration not stated),670
13,CCCN1C(=O)COc2ccc(-c3noc(-c4ccc(C)cc4)n3)cc21,1300
14,Cc1nn(C(C)C(=O)NCCCN2CCc3ccccc3C2)c(=O)c2nn(-c3ccccc3)c(C)c12 (configuration not stated),667
15,CCc1cccc2c3c([nH]c12)[C@@](CC)(CC(=O)O)OCC3,925
16,Cc1ccc(C)c(NC(=O)N2CCC(c3nc(C(=O)N4CCOCC4)c(C)o3)CC2)c1,712
17,Cc1cc(C2CCCN2C(=O)Nc2ccccc2Br)on1 (configuration not stated),867
18,CC(=O)N1CCc2cc(N3CC(C(=O)NCc4ccc5c(c4)OCO5)CC3=O)ccc21 (configuration not stated),659
19,CCCCNC(=O)Cn1c(C)nc2onc(CC)c2c1=O,726

# More lines, now with the values ahead:
row,RP-LC retention time [s],SMILES
1,651,CCn1cnc2cc(CNC(=O)c3ccc(C(F)(F)F)cc3)ccc21
2,647,COc1ccc(S(=O)(=O)N2CCCCC2CC(=O)Nc2ncccn2)cc1 (configuration not stated)
3,1070,Cc1ccc(N2C(=O)C3N=NN(Cc4nc(-c5ccc(Cl)cc5)no4)C3C2=O)cc1 (configuration not stated)
4,809,COc1cccc(C2=Nc3cccnc3N(CC(=O)NCc3ccco3)C(=O)C2)c1
5,1120,Clc1cccc(-c2nc(-c3cccc(-c4ccn[nH]4)c3)no2)c1
6,1000,Cc1ccc(NC(=O)c2sc(-c3cn(C)c4ncccc34)nc2C)cc1F
7,950,CCOC(=O)c1ccc(N2C=C(C(=O)N3CCCC3)S(=O)(=O)c3ccc(Cl)cc32)cc1
8,991,O=C(Cn1ccc2ccc(N3CCCCC3)nc21)NCc1ccc(F)cc1Cl
9,731,CN(Cc1ccccc1)c1ncc(C(=O)Nc2ccccc2)c(N)n1
10,757,Cc1cccc(CNC(=O)C2CCN(c3nnc4c(Cl)cccn34)CC2)c1C
11,881,O=C(NCCCN1CCCC1=O)c1csc(N2CCN(c3ccc(Cl)cc3)CC2)n1
12,826,COc1ccc(CCC(=O)N2CCC(C(=O)NCCc3csc(-c4cccs4)n3)CC2)cc1
13,644,CCOc1ccc(CNC(=O)c2cc(-c3ccncc3)cn2C)cc1
14,851,Cn1c(=O)sc2cc(S(=O)(=O)N3CCC(C(=O)NCc4ccccc4)CC3)ccc21
15,970,O=C(Nc1cnc(-c2ccccc2)nc1)c1ccccc1C(F)(F)F
16,1150,Cc1ccc(-c2nc(NC(=O)CCc3ccccc3)sc2C)cc1
17,715,O=C(NC1CCN(c2cc(-c3ccc(Cl)cc3)[nH]n2)C1)c1ccc2c(c1)OCO2 (configuration not stated)
18,877,COc1cccc(OCC(=O)Nc2ccc3c(c2)N(C(=O)c2ccco2)CCC3)c1
19,763,CSc1cccc(NC(=O)c2cn3c(n2)CSCC3)c1
20,868,CCN1C(=O)c2cccnc2Sc2cc(NC(=O)c3ccccc3OC)ccc21
21,810,CCCS(=O)(=O)NCc1ccc2c(c1)CCN2C(=O)c1ccccc1
22,655,O=C(Cc1cccc(Cl)c1)N1CC(n2cnnc2C2CC2)C1
23,1180,CCc1nc(-n2cccc2)sc1C(=O)Nc1ccc(Cl)cc1
24,976,CCn1cc(-c2nc(CC(=O)N3CCN(c4ccccc4F)CC3)cs2)c2cccnc21
25,858,CC1CCc2nc3ncn(CC(=O)Nc4ccc(Cl)cc4F)c(=O)c3cc2C1 (configuration not stated)
26,740,CCOc1ccc(NC(=O)C2(C)Oc3cccnc3NC2=O)cc1 (configuration not stated)
27,776,Cc1cccc(NC(=O)N2CCN(c3ccc(=O)n(-c4ccccc4)n3)CC2)c1
28,711,CC(=O)Nc1cccc(C(=O)NCCc2c[nH]c3ccc(F)cc23)c1
